In one experiment the test system is Vk*MYC multiple myeloma. The experiment is described as follows: Vk*MYC mouse model of multiple myeloma. The format is in vivo. The following applies: mice receiving only two doses, one week apart. The text has this:
A genetic rearrangement of the MYC locus, resulting in dysregulated expression of MYC, is the most common mutation in human multiple myeloma. The genetically engineered Vk*MYC mouse model is based on dysregulation of MYC, and has been extensively validated as a clinically and biologically faithful model of untreated multiple myeloma. Nine drugs or classes of drugs (DNA alkylators, glucocorticoids, proteasome inhibitors, IMiDs, nab-paclitaxel, histone deacetylase inhibitors, TACI-Ig, perifosine and SNS-032, a CDK2, 7, 9 inhibitor) have been previously reported with more than a 20% partial response rate in Vk*MYC MM. Among those, the first five also have greater than 20% PR in patients with multiple myeloma for a positive predictive value of 56%.

Experiment [1] has as its system U87G glioblastoma cell line. Put plainly: IC50 against glioblastoma cell line U87G. It is filed as cell-based.
Experiment [2] relates to T98G glioblastoma cell line. The experiment is described as follows: IC50 against glioblastoma cell line T98G. It is filed as cell-based.
The test system of experiment [3] is U87MG mouse xenograft model. The experiment is described as follows: U87MG subcutaneously inoculated xenograft, time to progression. The format is in vivo. As for the experimental part: (§1) Subcutaneously Inoculated Xenografts
(§2) • Vehicle (control) • Radiotherapy (2Gy/5 consecutive days) • Temozolamide (16 mg/Kg for 5 consecutive days, po) • Temozolamide+radiotherapy • EDO-S101 (60 mg/Kg at day 1, 8 and 15 every 28 days, iv) • EDO-S101+radiotherapy

Experiment [4] concerns Vk12653 transplant model of relapsed/refractory multiple myeloma. The experiment is described as follows: Vk12653 transplant model of relapsed/refractory multiple myeloma. The format is in vivo. The following applies: very aggressive, multi-drug resistant model.
The subject of experiment [5] is T98G, U251MG and U87MG glioblastoma cell lines. Put plainly: Radiotherapy and EDO-S101 against glioblastoma cell lines in vitro, surviving fraction. The format is cell-based. The following applies: radiotherapy in combination with EDO-S101 (5 μM or 10 μM) compared to radiotherapy alone. As for the experimental part:
FIG. 15 is a plot of % surviving fraction of in vitro T98G, U251MG and U87MG glioblastoma cell lines against dose of radiotherapy (Gy) in combination with two different concentrations of the compound of formula I (EDO-S101) against a control with radiotherapy alone.

Experiment [6] relates to U251MG glioblastoma cell line. Put plainly: IC50 against glioblastoma cell line U251MG. It is filed as cell-based.
The test system of experiment [7] is U251MG mouse xenograft model. The experiment is described as follows: U251MG subcutaneously inoculated xenograft, time to progression. The format is in vivo. As for the experimental part: as §1, §2
Experiment [8] deals with multiple myeloma cell lines. The following applies: WO-A-2010/085377; in vitro; cited from earlier work.
[9] abbreviates: combination with radiotherapy (2Gy/5 consecutive days), temozolamide 16 mg/Kg 5 consecutive days po, EDO-S101 60 mg/Kg day 1, 8, 15 iv.
Where [10] appears, read: drug alone, EDO-S101 60 mg/Kg at day 1, 8 and 15 every 28 days, iv.
[11] abbreviates: unit not given for temozolamide.

Where two headings read alike, the source gives them in different places.

A word on the IC50: it is the concentration that inhibits the measured activity by half. Read a high IC50 as lower potency. In the case of `Cn1c(CCCCCCC(=O)NO)nc2cc(N(CCCl)CCCl)ccc21` [EDO-S101], the duration of response result in the experiment with Vk*MYC multiple myeloma was “more than three months”. For the same molecule, the rate of response result in the experiment with Vk*MYC multiple myeloma is “high rate of response”. For the same molecule, the half-inhibitory concentration (IC50) in experiment [1] is 1.36 µM; in experiment [2] (Homo sapiens) it was 7.7 µM; in [6] (Homo sapiens, U-251) it was 6.6 µM. For the same molecule, the “time to progression of the tumours” value is “over 50 days” in [3] (setting [9]), 40 days in [3] (setting [10]), “over 50 days” in [7] (setting [9]) and “over 50 days” in experiment [7] (setting [10]). Further, the single agent activity entry in experiment [4] was “single agent activity”. Moreover, in experiment [5], the “% survival rate for the glioblastoma cells (FIG. 15)” value was “considerably reduced”. The “activity relative to the activity shown by bendamustin” value in experiment [8] is 35-100 ×.

Regarding `Cn1c(CCCC(=O)O)nc2cc(N(CCCl)CCCl)ccc21` [bendamustin], the IC50 in experiment [1] came out at 50 µM; in experiment [2], 52 µM; in experiment [6], 30 µM.

With `Cn1nnc2c(C(N)=O)ncn2c1=O` [temozolamide], the results for the IC50 in experiment [1] (setting [11]), in experiment [2] (setting [11]) and in [6] (setting [11]) were 20 µM, greater than 100 µM and 20 µM, respectively. Moreover, the “time to progression of the tumours” value in [3] (mouse, in vivo) is reported as 35 days; in [7] (mouse, in vivo), 42 days.

(Values after patent publication US12403130B2, “Pharmaceutical combinations for treating cancer” (Purdue Pharmaceutical Products L.P., priority 2014, dated 2025).)
